According to US6969711B2, “Cyclic diamine compounds and medicine containing the same” (Kowa Company, Ltd., priority 1997, dated 2005):

Row | SMILES | melting point
1 | CC(C)c1cc(C(C)C)c(NC(=O)CN2CCN(CCCSc3nc4ccccc4s3)CC2)c(C(C)C)c1 [Example 55, 2-[4-[3-(benzothiazol-2-ylthio)propyl]piperazin-1-yl]-N-(2,4,6-triisopropylphenyl)acetamide] | 107 to 108 °C
2 | CC(=O)Oc1cc(C(C)C)c(NC(=O)CN2CCN(CCSc3nc4ccccc4o3)CC2)c(C(C)C)c1 [Example 73, 2-[4-[2-(benzoxazol-2-ylthio)ethyl]piperazin-1-yl]-N-(4-acetoxy-2,6-diisopropylphenyl)acetamide] | 126 to 129 °C
3 | CC(C)c1ccc([N+](=O)[O-])c(C(C)C)c1NC(=O)CN1CCN(CCSc2nc3ccccc3o2)CC1 [Example 58, 2-[4-[2-(benzoxazol-2-ylthio)ethyl]piperazin-1-yl]-N-(2,6-diisopropyl-3-nitrophenyl)acetamide] | 143 to 145 °C
4 | CCCCCCCN(CCN1CCN(CCSc2nc3ccccc3o2)CC1)C(=O)Nc1c(C(C)C)cccc1C(C)C [Example 16, N-[2-[4-[2-(benzoxazol-2-ylthio)ethyl]piperazin-1-yl]ethyl]-N′-(2,6-diisopropylphenyl)-N-heptylurea] | 110 to 111 °C
5 | COC(=O)c1cccc2nc(SCCCN3CCN(CC(=O)Nc4c(SC)cc(C)nc4SC)CC3)oc12 [Example 30, N-[2,4-bis(methylthio)-6-methyl-3pyridyl)-2-[4-[3-(7-methoxycarbonylbenzoxazol-2-ylthio)propyl]piperazin-1-yl]acetamide] | 76 to 79 °C
6 | CCOCCOc1ccc(C(C)C)c(NC(=O)CN2CCN(CCCSc3nc4ccccc4o3)CC2)c1C(C)C [Example 71, 2-[4-[3-(benzoxazol-2-ylthio)propyl]piperazin-1-yl]-N-[2,6-diisopropyl-3-(2-ethoxyethyloxy)phenyl]acetamide] | 99 to 100 °C
7 | CC(C)c1ccc(OS(C)(=O)=O)c(C(C)C)c1NC(=O)CN1CCN(CCSc2nc3ccccc3o2)CC1 [Example 62, 2-[4-[2-(benzoxazol-2-ylthio)ethyl]-piperazin-1-yl]-N-(2,6-diisopropyl-3-mesyloxyphenyl)acetamide] | 164 to 166 °C (dec.)
8 | CC(C)c1ccc([N+](=O)[O-])c(C(C)C)c1NC(=O)CN1CCN(CCCSc2nc3ccccc3o2)CC1 [Example 67, 2-[4-[3-(benzoxazol-2-ylthio)propyl]piperazin-1-yl]-N-(2,6-diisopropyl-3-nitrophenyl)acetamide] | 156 to 158 °C
9 | CCSc1cc(C)nc(SCC)c1NC(=O)CN1CCN(CCSc2nc3ccccc3o2)CC1 [Example 34, 2-[4-[2-(benzoxazol-2-ylthio)ethyl]piperazin-1-yl]-N-[2,4-bis(ethylthio)-6-methyl-3-pyridyl]acetamide] | 108 to 109 °C
10 | CCCCCCCN(CCN1CCN(CCSc2nc3ccccc3[nH]2)CC1)C(=O)Nc1c(SCC)cc(C)nc1SCC.Cl.Cl | 134 to 137 °C
11 | CC(=O)Oc1ccc(C(C)C)c(NC(=O)CN2CCN(CCSc3nc4ccccc4o3)CC2)c1C(C)C [Example 63, 2-[4-[2-(benzoxazol-2-ylthio)ethyl]piperazin-1-yl]-N-(2,6-diisopropyl-3-acetyloxyphenyl)acetamide] | 129 to 131 °C
12 | CC(C)c1ccc(O)c(C(C)C)c1NC(=O)CN1CCN(CCSc2nc3ccccc3o2)CC1 [Example 61, 2-[4-[2-(benzoxazol-2-ylthio)ethyl]piperazin-1-yl]-N-(2,6-diisopropyl-3-hydroxyphenyl)acetamide] | 96 to 98 °C
13 | CCOCCOc1ccc(C(C)C)c(NC(=O)CN2CCN(CCSc3nc4ccccc4o3)CC2)c1C(C)C [Example 65, 2-[4-[2-(benzoxazol-2-ylthio)ethyl]piperazin-1-yl]-N-[2,6-diisopropyl-3-(2-ethoxyethyloxy)phenyl)acetamide] | 100 to 103 °C
14 | Cc1cc(C)c(NC(=O)CN2CCN(CCSc3nc4ccccc4o3)CC2)c(C)n1 [Example 47, 2-[4-[2-(benzoxazol-2-ylthio)ethyl]piperazin-1-yl]-N-(2,4,6-trimethyl-3-pyridyl)acetamide] | 159 to 160 °C
15 | COc1ccc(C(C)C)c(NC(=O)CN2CCN(CCSc3nc4ccccc4o3)CC2)c1C(C)C.Cl.Cl | 218 to 222 °C
16 | CC(C)c1cccc(C(C)C)c1NC(=O)CN1CCN(CCCSc2nc3ccccc3s2)CC1 [Example 8, 2-[4-[3-(benzothiazol-2-ylthio)propyl]piperazin-1-yl]-N-(2,6-diisopropylphenyl)acetamide] | 113 to 115 °C
17 | COC(=O)c1cccc2nc(SCCN3CCN(CC(=O)Nc4c(C(C)C)cccc4C(C)C)CC3)oc12 [Example 4, 2-[4-[2-(7-methoxycarbonylbenzoxazol-2-ylthio)ethyl]-piperazin-1-yl]-N-(2,6diisopropylphenyl)acetamide] | 159 to 161 °C
18 | CC(C)c1cc(OS(C)(=O)=O)cc(C(C)C)c1NC(=O)CN1CCN(CCSc2nc3ccccc3o2)CC1 [Example 74, 2-[4-[2-(benzoxazol-2-ylthio)ethyl]piperazin-1-yl]-N-(2,6-diisopropyl-4-mesyloxyphenyl)acetamide] | 115 to 117 °C
19 | Cc1cc(SC(C)C)c(NC(=O)CN2CCN(CCCSc3nc4ccccc4o3)CC2)c(SC(C)C)n1.Cl.Cl | 178 to 181 °C
20 | CCCCCCCN(CCN1CCN(CCSc2nc3cccc(C(F)(F)F)c3o2)CC1)C(=O)Nc1c(C(C)C)cc(O)cc1C(C)C.Cl | 95 to 97 °C

Other lines, results leading:

Row | melting point | SMILES
21 | 96 to 97 °C | COCc1ccc2nc(SCCN3CCN(CC(=O)Nc4c(C(C)C)cccc4C(C)C)CC3)oc2c1COC [Example 100, 2-[4-[2-(6,7-bis(methoxymethyl)benzoxazol-2-ylthio]ethyl]piperazin-1-yl]-N-(2,6-diisopropylphenyl)acetamide]
22 | 142 to 144 °C | CC(C)c1ccc(F)c(C(C)C)c1NC(=O)CN1CCN(CCSc2nc3ccccc3o2)CC1 [Example 155, 2-[4-[2-(benzoxazol-2-ylthio)ethyl]piperazin-1-yl]-N-(2,6-diisopropyl-3-fluorophenyl)acetamide]
23 | 147 to 149 °C | CC(C)c1cccc(C(C)C)c1NC(=O)NCCN1CCN(CCSc2nc3ccccc3s2)CC1 [Example 81, N-[2-[4-[2-(benzothiazole-2-ylthio)ethyl]piperazin-1-yl]ethyl]-N′-(2,6-diisopropylphenyl)urea]
24 | 138 to 139 °C | CC(C)c1cccc(C(C)C)c1NC(=O)CN1CCN(CCSc2nc3cccc(CO)c3o2)CC1 [Example 102, 2-[4-[2-(7-hydroxymethylbenzoxazol-2-ylthio]ethyl]piperazin-1-yl]-N-(2,6-diisopropylphenyl)acetamide]
25 | 175 to 176 °C | CC(C)c1cccc(C(C)C)c1NC(=O)NCCN1CCN(CCSc2nc3ncccc3o2)CC1 [Example 83, N-[2-[4-[2-(oxazolo[4,5-b]pyridine-2-ylthio)ethyl]piperazin-1-yl]ethyl]-N′-(2,6-diisopropylphenyl)urea]
26 | 165 to 166 °C | COc1cc(C(C)C)c(NC(=O)CN2CCN(CCSc3nc4cccc([N+](=O)[O-])c4o3)CC2)c(C(C)C)c1 [Example 105, 2-[4-[2-(7-nitrobenzoxazol-2-ylthio)ethyl]-piperazin-1-yl]-N-(2,6-diisopropyl-4-methoxyphenyl)acetamide]
27 | 86 to 88 °C | CC(=O)c1cccc2nc(SCCCN3CCCN(CC(=O)Nc4c(C(C)C)cccc4C(C)C)CC3)oc12 [Example 94, 2-[4-[3-(7-acetylbenzoxazol-2-ylthio)propyl]homopiperazin-1-yl]-N-(2,6-diisopropylphenyl)acetamide]
28 | 107 to 108 °C | CCSc1cc(C)nc(SCC)c1NC(=O)CN1CCN(CCSc2nc3cccc(C(F)(F)F)c3o2)CC1 [Example 89, 2-[4-[2-(7-trifluoromethylbenzoxazol-2-ylthio)ethyl]piperazin-1-yl]-N-[2,4-bis(ethylthio)-6-methyl-3-pyridyl]acetamide]
29 | 201 to 203 °C | CC(C)c1cc(O)cc(C(C)C)c1NC(=O)CN1CCN(CCCSc2nc3ccccc3o2)CC1 [Example 118, 2-[4-[3-(benzoxazol-2-ylthio)propyl]piperazin-1-yl]-N-(2,6-diisopropyl-4-hydroxyphenyl)acetamide]
30 | 130 to 133 °C | CC(C)c1cc(O[C@@H]2O[C@H](CO)[C@@H](O)[C@H](O)[C@H]2O)cc(C(C)C)c1NC(=O)CN1CCN(CCSc2nc3cccc(C(F)(F)F)c3o2)CC1 [Example 134, 2-[4-[2-(7-trifluoromethylbenzoxazol-2-ylthio)ethyl]piperazin-1-yl]-N-[2,6-diisopropyl-4-(β-D-glucopyranosyl)oxyphenyl]acetamide]
31 | 115 to 117 °C | CC(C)c1ccc([N+](=O)[O-])c(C(C)C)c1NC(=O)CN1CCN(CCSc2nc3cccc(C(F)(F)F)c3o2)CC1 [Example 87, 2-[4-[2-(7-trifluoromethylbenzoxazol-2-ylthio)ethyl]piperazin-1-yl]-N-(2,6-diisopropyl-3-nitrophenyl)acetamide]
32 | 186 to 187 °C | COC(=O)c1ccc2nc(SCCN3CCN(CC(=O)Nc4c(C(C)C)cccc4C(C)C)CC3)oc2c1C(=O)OC [Example 99, 2-[4-[2-(6,7-bis(methoxycarbonyl)benzoxazol-2-ylthio]ethyl]piperazin-1-yl]-N-(2,6-diisopropylphenyl)acetamide]
33 | 57 to 59 °C | Cc1cc(SC(C)C)c(NC(=O)CN2CCN(CCSc3nc4cccc([N+](=O)[O-])c4o3)CC2)c(SC(C)C)n1 [Example 107, 2-[4-[2-(7-nitrobenzoxazol-2-ylthio)ethyl]-piperazin-1-yl]-N-[2,4-bis(isopropylthio)-6-methyl-3-pyridyl]acetamide]
34 | 138 to 140 °C | CC(C)c1cccc(C(C)C)c1NC(=O)CN1CCN(CCSc2nc3cccc(C(C)(C)C)c3o2)CC1 [Example 95, 2-[4-[2-(7-tert-butylbenzoxazol-2-ylthio)ethyl]piperazin-1-yl]-N-(2,6-diisopropylphenyl)acetamide]
35 | 118 to 120 °C | CCSc1cc(C)nc(SCC)c1NC(=O)CN1CCN(CCSc2nc3ccc(COC)c(COC)c3o2)CC1 [Example 101, 2-[4-[2-(6,7-bis(methoxymethyl)benzoxazol-2-ylthio)ethyl]piperazin-1-yl]-N-(2,4-bis(ethylthio)-6-methyl-3-pyridyl)acetamide]
